Measurements from patent US20080085912A1, “Isoxazole derivatives and methods of treating diseases” (Unitech Pharmaceuticals, Inc., priority 2006, published 2008).
Values joined by “and” are separate entries in the source; they are usually repeats but may differ in a detail not shown here. Identical values can stand only once.

Legend:
ITGB6 = assay: Gene array analysis, keratinocytes: ITGB6; assay type: cell-based, Human; details: 35 μg/ml; UVB
Protocol: (§1) Human epidermal keratinocytes were seeded into 6-well plates and grown at 37±2° C. and 5±1% CO2 using serum free Epilife media supplemented as recommended by the manufacturer. Upon reaching confluency, the media were removed and the cells were treated overnight with Epilife media containing 1% v/v each of the stock solutions above (Vehicle stock and UTR-1 stock). Final concentration was 35 μg/ml for UTR-1. Two wells in the 6-well plate were prepared for each treatment. After applying the test material the cells were incubated for 24 hours at 37±2° C. and 5±1% CO2.
(§2) At the end of the incubation period the culture media was removed via aspiration and replaced with phosphate buffered saline and the cells were then irradiated with ˜30 mJ/cm^2 of UVB radiation. After the irradiation, the phosphate buffered saline was replaced by fresh culture media and the cells were incubated overnight at 37±2° C. and 5±1% CO2. After the incubation the cell culture media was collected to measure TNF-α release by a commercial ELISA Assay kit. […] In general, (1) the fluorescence intensity of the gene marker should be greater than the background intensity, and (2) the ratio of Cy5/Cy3 (treated/untreated) fluorescence intensity needs to be greater than 1.3 or less than 0.66 to indicate a change of ±30% in gene expression.

EFA6R = assay: Gene array analysis, keratinocytes: EFA6R; assay type: cell-based, Human; details: 35 μg/ml; UVB
Protocol: as §1, §2

TNF-α = TNF-α released from UVB-irradiated keratinocytes in vitro (ELISA); assay type: cell-based, Human
Protocol: 1. Vehicle stock: 50:50 v/v EtOH:PEG 600
2. UTR-1 stock: 3.5 mg/ml UTR-1 in a vehicle of 50:50 v/v EtOH:PEG 600
as §1
(§3) At the end of the incubation period the culture media was removed via aspiration and replaced with phosphate buffered saline and the cells were then irradiated with ˜30 mJ/cm^2 of UVB radiation. After the irradiation, the phosphate buffered saline was replaced by fresh culture media and the cells were incubated overnight at 37±2° C. and 5±1% CO2. After the incubation the cell culture media was collected to measure TNF-α release by a commercial ELISA Assay kit. The cells were washed once with PBS and then a trypsin/EDTA solution was added to release the cells, followed by the addition of trypsin neutralizing solution. The cells were collected and pooled into 15 ml centrifuge tubes based on their treatment and pelleted by centrifuging at 1000 RPM at 4±2° C. After removing the supernatant, the pelleted cells were lysed by adding 500 μl of guanidinium thiocyanate lysis solution to each tube and then repeatedly drawing and releasing the solution into the pipette until the cell pellet is dissolved. Total RNA was then isolated by an RNAqueous kit (Ambion). After purifying the RNA, mRNA is isolated and the converted into anti-sense RNA (aRNA). The aRNA is then labeled with a florescent probe. In this case, Cy3 (green florescent signal) is used to label the sRNA from untreated sample, while Cy5 (red fluorescent) is used to label the aRNA of treated sample. Once the aRNA is labeled and any unincorporated dye is removed from the sample, the labeled aRNA is mixed with a hybridized solution and applied to the microarray. The microarray is then hybridized overnight at 60-65° C. After hybridization, the microarray is washed to remove any unbound aRNA probe and then scanned with a microarray scanner. Criteria for evaluating changes in gene expression may vary. In general, (1) the fluorescence intensity of the gene marker should be greater than the background intensity, and (2) the ratio of Cy5/Cy3 (treated/untreated) fluorescence intensity needs to be greater than 1.3 or less than 0.66 to indicate a change of ±30% in gene expression.

MAP3K2 = assay: Gene array analysis, keratinocytes: MAP3K2; assay type: cell-based, Human
Protocol: as §1
as §3, with “In this case, Cy3 (green florescent signal) is used to label the sRNA from untreated sample, while Cy5 (red fluorescent) is used to label the aRNA of treated sample. Once the aRNA is labeled and any unincorporated dye is removed from the sample, the labeled aRNA is mixed with a hybridized solution and applied to the microarray. The microarray is then hybridized overnight at 60-65° C. After hybridization, the microarray is washed to remove any unbound aRNA probe and then scanned with a microarray scanner. Criteria for evaluating changes in gene expression may vary.” left out

DEFA6 = assay: Gene array analysis, keratinocytes: DEFA6; assay type: cell-based, Human; details: 35 μg/ml; UVB
Protocol: as §1, §2

[1] = test system: Carrageenan-induced hind paw edema; assay: Carrageenan-induced hind paw edema test on rats; assay type: in vivo, SD rats; details: for Anti-inflammatory activity (in words): carrageenan-induced edema animal study; for Avg E % of the injected paw: group average of 5 rats; for Avg E % of the injected paw / Edema % of the injected paw: 20 mg/kg i.p. pretreatment; for Volume (ml) of the injected paw / Edema % of the injected paw: individual rats (Rat 1-5); for Volume (ml) of the injected paw: 20 mg/kg i.p. 1 h before carrageenan, 20 mg/kg
Protocol: Male/female SD rats (180-215 g) were assigned to two groups: (1) control group and (2) test group, with 5 rats in each group. UTR-1 was first dissolved in DMSO (20 mg in 0.5 ml DMSO) and then diluted with 1% CMC (carboxymethylcellulose) to make 5 ml sample preparation. One hour before the carrageenan challenge (pretreatment), 1 ml of the sample preparation was injected i.p. into a rat in a test group. This is equivalent to 20 mg/kg (1 ml×4 mg/ml×1000 g/200 g=20 mg/kg based on the average weight per rat of 200 g). The vehicle without drug was injected in the same way into animals in the control group. In order to induce inflammation, 50 μl of a 1% carrageenan solution in normal saline was injected into the right hind paw subplantar tissue. The development of paw edema was measured by a plethysmometer (Basile 7140 plethysmometer, Ugo, Varese, Italy). After the carrageenan challenge, each paw volume (ml) was measured hourly. The Edema (E %) is calculated as follows: [formula] V0=Volume (mL) of the rear right footpad before the injection of Carrageenan Vt=Volume (mL) of the rear right footpad at “t” time after the injection of Carrageenan

JAK3 = assay: Gene array analysis, keratinocytes: JAK3; assay type: cell-based, Human; details: for Ratio of treated/control / Suppression %: 35 μg/ml, UVB
Protocol: as §1, §3

TUCAN = assay: Gene array analysis, keratinocytes: TUCAN; assay type: cell-based, Human; details: 35 μg/ml; UVB
Protocol: as §1, §2

APOBEC1 = assay: Gene array analysis, keratinocytes: APOBEC1; assay type: cell-based, Human; details: 35 μg/ml; UVB
Protocol: as §1, §2

PTGER1 = assay: Gene array analysis, keratinocytes: PTGER1; assay type: cell-based, Human; details: 35 μg/ml; UVB
Protocol: as §1, §2

EPHB4 = assay: Gene array analysis, keratinocytes: EPHB4; assay type: cell-based, Human; details: 35 μg/ml; UVB
Protocol: as §1, §2

[2] = UVB ~30 mJ/cm^2, 35 μg/ml, 24 h pretreatment
[3] = array entry MAP3K2 (homo sapien), 35 μg/ml, UVB

Cc1cc(C(=O)O)no1 [UTR-1, 5-methylisoxazole-3-carboxylic acid]
Ratio of treated/control (ITGB6): 0.3 | Suppression % (ITGB6): 70% | Ratio of treated/control (EFA6R): 0.375 | Suppression % (EFA6R): 63% | Reduction of TNF-α secreted from stimulated keratinocyte cells (in words) (TNF-α): very effective in reducing TNF-α | TNFα (pg/ml), Sample2 (TNF-α; [2]): 119 pg/mL | TNFα (pg/ml), sample1 (TNF-α; [2]): 120 pg/mL | TNFα Avg. (TNF-α; average of n=2 wells, UVB ~30 mJ/cm^2, 35 μg/ml): 120 pg/mL | Ratio of treated/control (MAP3K2; [3]): 0.592 | Suppression % (MAP3K2; [3]): 40% | Gene suppression (in words) (MAP3K2; gene array analysis): significantly suppressed | Ratio of treated/control (DEFA6): 0.38 | Suppression % (DEFA6): 62% | Anti-inflammatory activity (in words) [1]: surpassingly effective in anti-inflammation | Anti-inflammatory activity (in words) ([1]; listed as 5-methylisoxazole-3-carboxylic aicd): surprisingly and unexpectedly effective in anti-inflammation | Avg E % of the injected paw ([1]; Time 0 hr): 0.00% | Avg E % of the injected paw ([1]; Time 1 hr): 11.90% | Avg E % of the injected paw ([1]; Time 2 hr): 22.70% | Avg E % of the injected paw ([1]; Time 3 hr): 37.85% | Avg E % of the injected paw ([1]; Time 4 hr): 49.89% | Volume (ml) of the injected paw ([1]; Time 0 hr): 1.46 ml and 1.48 ml and 1.35 ml and 1.33 ml (2×) | Volume (ml) of the injected paw ([1]; Time 1 hr): 1.77 ml and 1.47 ml and 1.50 ml (2×) and 1.53 ml | Volume (ml) of the injected paw ([1]; Time 2 hr): 1.92 mL and 1.53 mL and 1.65 mL and 1.66 mL and 1.75 mL | Volume (ml) of the injected paw ([1]; Time 3 hr): 2.36 mL and 1.55 mL and 1.76 mL and 2.10 mL and 1.79 mL | Volume (ml) of the injected paw ([1]; Time 4 hr): 2.49 mL and 1.62 mL and 1.78 mL and 2.35 mL and 2.14 mL | Edema % of the injected paw ([1]; Time 0 hr): 0.00% | Edema % of the injected paw ([1]; Time 1 hr): 21.23% and −0.68% and 11.11% and 15.04% and 12.78% | Edema % of the injected paw ([1]; Time 2 hr): 31.51% and 3.38% and 22.22% and 24.81% and 31.58% | Edema % of the injected paw ([1]; Time 3 hr): 61.64% and 4.73% and 30.37% and 57.89% and 34.59% | Edema % of the injected paw ([1]; Time 4 hr): 70.55% and 9.46% and 31.85% and 76.69% and 60.90% | Ratio of treated/control (JAK3; array entry JAK3 (homo sapien)): 0.386 | Suppression % (JAK3; array entry JAK3 (homo sapien)): 61% | Ratio of treated/control (JAK3; array entry JAK3): 0.417 | Suppression % (JAK3; array entry JAK3): 58% | Gene suppression (in words) (JAK3; gene array analysis): significantly suppressed | Ratio of treated/control (TUCAN): 0.333 | Suppression % (TUCAN): 67% | Ratio of treated/control (APOBEC1): 0.333 | Suppression % (APOBEC1): 67% | Ratio of treated/control (PTGER1): 0.286 | Suppression % (PTGER1): 71% | Ratio of treated/control (EPHB4): 0.433 | Suppression % (EPHB4): 57%
